Inhibition and melting point data for 13 compounds are collected here from patent publication US8618287B2, “Derivatives of triazines and uracils, their preparation and their application in human therapeutics” (Pierre Fabre Medicament, priority 2008, dated 2013).

The structures appear in SMILES notation.

Series [1] deals with T1, Human SCD-1 (Homo sapiens, UniProt O00767).
T1 construct: adding 125 μg of microsomal fraction of HepG2 cells; host or cells: HepG2 human hepatocarcinoma cells (microsomal fraction)
T1 sequence (O00767 1-359): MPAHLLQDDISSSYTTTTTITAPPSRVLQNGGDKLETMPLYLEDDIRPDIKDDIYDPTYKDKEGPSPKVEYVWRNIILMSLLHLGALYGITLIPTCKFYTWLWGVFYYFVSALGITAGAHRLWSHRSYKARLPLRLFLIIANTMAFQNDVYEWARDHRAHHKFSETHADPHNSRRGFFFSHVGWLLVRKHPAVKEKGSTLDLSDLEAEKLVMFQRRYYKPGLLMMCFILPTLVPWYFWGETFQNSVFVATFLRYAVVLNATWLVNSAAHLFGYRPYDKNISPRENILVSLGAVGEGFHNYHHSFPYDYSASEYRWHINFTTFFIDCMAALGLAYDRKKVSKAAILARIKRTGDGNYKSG
As to the kind of experiment: Human SCD-1 enzymatic activity from microsomes of HepG2 cells (conversion of stearic acid into oleic acid). The class given is biochemical. Particulars: 10 μM compound; microsomal fraction of HepG2 cells; relative to carrier 0.1% DMSO; read-out: HSCD-1 (HEPG2) % inh. (10 μM). As to the method:
In vitro: Human SCD-1 enzymatic activity from microsomes of HepG2 cells after treatment with inhibitory compounds (inhibition %).
Human hepatocarcinoma HepG2 cells (ATCC, HB-8065) are grown to confluence and then trypsinized. The cell pellet is taken up in 10 mM Tris buffer (pH 7.4), saccharose (250 mM) DTT (1 mM) and then the cells are lyzed by sonication. The microsomes are obtained after centrifugation at 10,000 g for 20 minutes a 4° C. followed by centrifugation of the supernatant at 100,000 g for 60 minutes a 4° C. The pellet is taken up in 10 mM Tris buffer (pH 7.4) saccharose (250 mM) at 4° C. and the microsomal proteins are assayed and stored at −196° C. (liquid nitrogen).
The enzymatic reaction measures the conversion of stearic acid (a C18:0 fatty acid) into oleic acid (C18:1 fatty acid) by SCD-1. The enzymatic reaction is started by adding 125 μg of microsomal fraction of HepG2 cells to tubes (total reaction volume of 500 μl) containing 62 μM of stearic acid (45 μM of stearic acid and 17 μM of [^14C] stearic acid) in a phosphate buffer at 100 mM (pH 7.16) with 7.2 mM of ATP, 0.54 mM of CoA, 6 mM of MgCl2, 0.8 mM of NADH and the inhibitory compound or the carrier (0.1% DMSO). The tubes are incubated for 20 minutes at 37° C. and the enzymatic reaction is then stopped by adding KOH (12%) and saponification for 30 minutes at 80° C. After acidification (3N HCl), the fatty acids are extracted twice with ethyl ether, evaporated under nitrogen before being taken up with a methanol/dichloromethane (3:1) mixture. The product of the reaction (C18:1) is separated from the substrate of the reaction (C18:0) by HPLC (Perkin Elmer, C18 reverse phase column) coupled to a on-line radioactivity detector (FlowOne). Enzymatic activity is calculated in picomoles of stearic acid converted into oleic acid per minute and per mg of protein. For each inhibitory compound, an inhibition % is determined relatively to the reference enzymatic activity (carrier 0.1% DMSO). Sterculic acid is the reference inhibitory compound (Gomez F. E., Bauman D. E., Ntambi J. M., Fox B. G. Effects of sterculic acid on stearoyl-CoA desaturase in differentiating […] adipocytes. Biochem Biophys Res Commun. 300 316-326 (2003)).

Compound `Cn1c(=O)[nH]nc(N2CCC(Oc3ccccc3C(F)(F)F)CC2)c1=O` [Example 85, 4-methyl-6-[4-(2-trifluoromethyl-phenoxy)-piperidin-1-yl]-2H-[1,2,4]triazine-3,5-dione] gave a melting point of 150 °C. Also, in series [1], the inhibition at 10 µM is 95%.
For `CCCCCCCn1c(=O)[nH]nc(N2CCC(Oc3ccccc3Cl)CC2)c1=O` [Example 76, 6-[4-(2-chloro-phenoxy)-piperidin-1-yl]-4-heptyl-2H-[1,2,4]triazine-3,5-dione], in that order: 95 °C and 62%.
For `Cn1nc(N2CCN(C(=O)c3cc(F)ccc3C(F)(F)F)CC2)c(=O)n(C)c1=O` [Example 42, 6-[4-(5-fluoro-2-trifluoromethyl-benzoyl)-piperazin-1-yl]-2,4-dimethyl-2H-[1,2,4]triazine-3,5-dione], in that order: 87 °C and 80%.
For `Cn1nc(N2CCN(C(=O)c3ccccc3C(F)(F)F)CC2)c(=O)n(C)c1=O` [Example 5, 2,4-dimethyl-6-[4-(2-trifluoromethyl-benzoyl)-piperazin-1-yl]-2H-[1,2,4]triazine-3,5-dione], in that order: 76 °C and 43%.
As for `Cn1nc(N2CCC(Oc3cc(F)ccc3Cl)CC2)c(=O)n(C)c1=O` [Example 30, 6-[4-(2-chloro-5-fluoro-phenoxy)-piperidin-1-yl]-2,4-dimethyl-2H-[1,2,4]triazine-3,5-dione], the melting point amounted to 168 °C. For the same compound, the inhibition at 10 µM in series [1] came to 86%.
For `Cn1c(=O)c(N2CCC(Oc3ccccc3C(F)(F)F)CC2)nn(CCO)c1=O` [Example 89, 2-(2-hydroxy-ethyl)-4-methyl-6-[4-(2-trifluoromethyl-phenoxy)-piperidin-1-yl]-2H-[1,2,4]triazine-3,5-dione], in that order: 112 °C and 100%.
For `Cc1ccccc1OC1CCN(c2nn(C)c(=O)n(C)c2=O)CC1` [Example 31, 2,4-dimethyl-6-(4-o-tolyloxy-piperidin-1-yl)-2H-[1,2,4]triazine-3,5-dione], in that order: 102 °C and 73%.
For `Cn1nc(N2CCC(Oc3ccc(F)cc3)CC2)c(=O)n(C)c1=O` [Example 33, 6-[4-(4-fluoro-phenoxy)-piperidin-1-yl]-2,4-dimethyl-2H-[1,2,4]triazine-3,5-dione], in that order: 70 °C and 48%.
Consider `Cn1c(=O)[nH]nc(N2CCN(C(=O)c3ccccc3C(F)(F)F)CC2)c1=O` [Example 4, 4-methyl-6-[4-(2-trifluoromethyl-benzoyl)-piperazin-1-yl]-2H-[1,2,4]triazine-3,5-dione], for which the melting point amounted to 235 °C. The inhibition at 10 µM in series [1] stood at 77%.
For `Cn1c(=O)c(N2CCC(Oc3ccccc3C(F)(F)F)CC2)nn(-c2ccc(C#N)cc2)c1=O` [Example 83, 4-{4-methyl-3,5-dioxo-6-[4-(2-trifluoromethyl-phenoxy)-piperidin-1-yl]-4,5-dihydro-3H-[1,2,4]triazin-2-yl}-benzonitrile], in that order: 72 °C and 79%.
For `Cn1c(=O)c(N2CCC(Oc3ccccc3C(F)(F)F)CC2)nn(-c2ccc(F)cc2)c1=O` [Example 80, 2-(4-fluoro-phenyl)-4-methyl-6-[4-(2-trifluoromethyl-phenoxy)-piperidin-1-yl]-2H-[1,2,4]triazine-3,5-dione], in that order: 111 °C and 87%.
For `CCOCCOCCn1nc(N2CCC(Oc3ccccc3C(F)(F)F)CC2)c(=O)n(C)c1=O` [Example 88, 2-[2-(2-ethoxy-ethoxy)-ethyl]-4-methyl-6-[4-(2-trifluoromethyl-phenoxy)-piperidin-1-yl]-2H-[1,2,4]triazine-3,5-dione], in that order: 44 °C and 48%.
As to `Cn1nc(N2CCN(Cc3ccccc3C(F)(F)F)CC2)c(=O)n(C)c1=O` [Example 55, 2,4-dimethyl-6-[4-(2-trifluoromethyl-benzyl)-piperazin-1-yl]-2H-[1,2,4]triazine-3,5-dione], the melting point was 92 °C. In addition, the inhibition at 10 µM in series [1] was found to be 65%.
